The results in this text go back to patent publication US12403169B2, “Compositions and methods related to Rhamnus prinoides (gesho) extract for the inhibition of polymicrobial biofilm formation” (GEORGIA STATE UNIVERSITY RESEARCH FOUNDATION, INC., priority 2018, dated 2025).

The test system of one experiment is biofilm. The experiment is described as follows: Screen of other compounds for anti-biofilm effect. Type of experiment: cell-based.
Experiment [1] relates to Staphylococcus aureus growth. Briefly: Staphylococcus aureus growth curve. Type of experiment: cell-based, Staphylococcus aureus ATCC 6538. As for the experimental part:
2 mL of each treatment was added to 19 culture tubes and the samples were incubated for 24 h at 37° C. with shaking at 200 rpm. 1 mL of each sample was transferred to a cuvette and the absorbance measurements at 600 nm were taken every hour for 9 hours. 24 h measurements were taken the following day. Untreated samples and samples containing 1.6 μg/mL vancomycin served as a negative and positive controls, respectively. Growth rates were calculated using the slope of the log phase of growth (t=0 h and t=4 h).

The subject of experiment [2] is Staphylococcus aureus biofilm formation. Briefly: microbe, parasite or virus in culture. The note with it: for IC50 / CC50: Staphylococcus aureus; for IC50: 24 h, read-out: BP50; for CC50: read-out: category based on BP50 and LC50; for effect on biofilm formation: evaluated at 0.8% and 3%; for anti-biofilm activity (words): pure compounds. On the procedure: Staphylococcus aureus and Streptococcus mutans biofilms were grown in Luria-Bertani (LB) broth and brain-heart infusion (BHI) medium containing 0.5% sucrose, respectively. Biofilm formation was assessed using a polystyrene 96 well microtiter plate crystal violet assay. Overnight broth cultures were diluted to an initial optical density (OD600) of 0.01 in fresh media and combined with gesho extract to obtain a final concentration of 7 mg/ml. Treatments were then serially diluted to final extract concentrations of 5, 3, 1, 0.5 and 0.25 mg/ml. Negative controls consisted of cells diluted to an initial optical density (OD600) of 0.01 in growth media without plant extract. 100 μl of treated and untreated samples were added to each well of a microtiter plate and incubated at 37° C. for 24 hours. After 24 hours, planktonic cells and spent growth media were removed from each well and the plate was washed three times in sterile water. Biofilms were then stained with 150 μl of 0.1% crystal violet for 15 minutes at 200 rpm. Excess dye was removed via washing in sterile water and the plate was allowed to air dry.
Staphylococcus aureus and Pseudomonas aeruginosa biofilms were grown in LB broth and PBM-glucose, respectively. Biofilm formation was assessed using a polystyrene 96 well microtiter plate crystal violet assay. […] DMSO was added to solubilize the treatments. Negative controls consisted of cells diluted to an initial OD600 of 0.01 in growth media without treatment. 100 μl of treated and untreated samples were added to each well of a microtiter plate and incubated at 37° C. for 24 h. After 24 h, planktonic cells and spent growth media were removed from each well and the plate was washed 3 times in sterile water. Biofilms were then stained with 150 μl of 0.1% crystal violet for 15 min at 200 rpm. Excess dye was removed via washing in sterile water and the plate was allowed to air dry.
Biofilm formation was assessed using a polystyrene 96 well microtiter plate crystal violet assay.^23 Overnight broth cultures were diluted to an initial OD600 of 0.01 in fresh LB and combined with a target compound to obtain a final concentration of 7 mg/ml. Treatments were then serially diluted to final extract concentrations of 5, 3, 1, 0.5 and 0.25 mg/ml. No vehicles were added to solubilize the treatments. Untreated cells served as negative controls. 100 μl of treated and untreated samples were added to each well of a microtiter plate and incubated at 37° C. for 24 h. After 24 h, planktonic cells and spent growth media were removed from each well and the plate was washed 3 times in sterile water. Biofilms were then stained with 150 μl of 0.1% crystal violet for 15 min at 200 rpm. Excess dye was removed via washing in sterile water and the plate was allowed to air dry. […] The molarity of each treatment was calculated using excel.

Experiment [3] deals with Staphylococcus aureus log-phase planktonic cells. The experiment is described as follows: Log-phase cell antimicrobial assay. Type of experiment: cell-based, Staphylococcus aureus ATCC 6538. The settings on record: pure compounds, with or without 1% DMSO. As for the experimental part: Bacteria were inoculated in 20 ml of growth media at an initial optical density (OD600) of 0.01 and incubated at 37° C., 200 rpm until log-phase was reached. One milliliter of log-phase cells was transferred to 1.5 ml microfuge tubes and growth media removed via centrifugation. Pelleted cells were washed twice with phosphate buffered saline (PBS) before resuspending the pellets in 1 ml of extract dissolved in PBS. Treatments were incubated at 37° C. for 1 hour then serially diluted in PBS and radially plated on growth agar.
Bacteria were inoculated in 20 ml of growth media at an initial optical density (OD600) of 0.01 and incubated for 4±1 h at 37° C. with shaking at 200 rpm until log phase (OD600≈0.35) was reached. 1 ml of log-phase cells was transferred to 1.5 ml microfuge tubes and the growth medium was removed via centrifugation. Pelleted cells were washed twice with phosphate buffered saline (PBS) before resuspending the pellets in 1 ml of 4-ethoxybenzoic acid or methyl gallate with or without vancomycin dissolved in PBS. Treatments were incubated at 37° C. for 1 h and then serially diluted in PBS and radially plated on growth agar.

Experiment [4] deals with Staphylococcus aureus stationary phase planktonic cells. The note with it: pure compounds, with or without 1% DMSO. On the procedure:
To assess the viability of stationary phase planktonic cell, a growth agar based assay was conducted. Spent media containing stationary phase planktonic cells was collected after a biofilm formation assay. Collected cells were serially diluted in PBS and dilutions were radially plated in 10 μl volumes on growth medium. Agar plates were incubated at 37° C. overnight to allow for colony formation. Plate counts were used to assess viability.
To assess the viability of stationary phase planktonic cells, a growth agar-based assay was conducted. Spent media containing stationary phase planktonic cells were collected from microtiter plates after the conclusion of each biofilm formation assay. The collected cells were serially diluted (1:10) in PBS and dilutions were radially plated in 10 μl volumes on growth medium. Agar plates were incubated at 37° C. overnight to allow for colony formation and plate counts were used to assess viability. Colony forming units per milliliter of culture (CFU/mL) was calculated by dividing the colony counts (C) by the volume added (V) multiplied by the dilution factor (D): […]

The subject of experiment [5] is Staphylococcus aureus biofilms. Briefly: Staphylococcus aureus biofilm killing assay (resazurin). Type of experiment: cell-based, Staphylococcus aureus ATCC 6538. The settings on record: combination with vancomycin at its MBEC. On the procedure: Staphylococcus aureus biofilms were formed as described above. Staphylococcus aureus biofilms were grown in LB broth. […] […]. Negative controls consisted of 100 μL of fresh LB without compound or antibiotic. […] 100 μL of 10 μg/mL resazurin in LB was added to each biofilm and the plate was statically incubated at 37° C. for 3 hrs. During incubation, fluorescence intensity was measured at λex=570 nm λem=590 nm every 6 minutes using an Enspire fluorescence plate reader. Data was normalized to the emission at t=0 and the rates of resazurin conversion to resorufin was calculated to identify the time at which maximum fluorescence was achieved.
Background: Resazurin is reduced to fluorescent resorufin, in cell work by metabolically active cells.

In experiment [6] the test system is Staphylococcus aureus hydrophobicity. Briefly: Hydrophobicity test (microbial adherence to hydrocarbon). The note with it: 0.2 or 0.4 mg/mL, 24 h. It is filed as cell-based. As for the experimental part:
Hydrophobicity analysis was conducted according to Ciccio, et al., 2015 with a few modifications. Three milliliters of Staphylococcus aureus cultures were grown in the presence of 4-ethoxybenzoic acid (0.2 or 0.4 mg/mL) or methyl gallate (0.2 or 0.4 mg/mL) for 24 h at 37° C. with shaking at 200 rpm. Cultures were diluted to an OD600 of 0.6 and washed with 1 mL PBS. 5 mL of the inoculum was produced, 1 mL was removed for plating on growth agar and 1 mL of hexadecane was applied to the air-liquid interface or the remaining 4 mL. Hexadecane samples were vortexed for 1 min and the phases allowed to separate for 15 minutes at room temperature. 1 mL of the aqueous layer was removed and plated on growth agar. Agar plates were incubated at 37° C. overnight and plate counts were conducted the following day. Results were interpreted as the percent of cells present in the aqueous layer prior to (A0) and after (A1) the addition of hexadecane [(A0−A1)/A0]*100.

Where only a bound is given, the exact number is not on record here.

`CCCCCCCCC(C)O` (stereo not shown) [2-decanol]: the “anti-biofilm effect” value in the experiment on biofilm is reported as “anti-biofilm effect”.
Consider `CN[C@H](CC(C)C)C(=O)N[C@H]1C(=O)N[C@@H](CC(N)=O)C(=O)N[C@H]2C(=O)N[C@H]3C(=O)N[C@H](C(=O)N[C@H](C(=O)O)c4cc(O)cc(O)c4-c4cc3ccc4O)[C@H](O)c3ccc(c(Cl)c3)Oc3cc2cc(c3O[C@@H]2O[C@H](CO)[C@@H](O)[C@H](O)[C@H]2O[C@H]2C[C@](C)(N)[C@H](O)[C@H](C)O2)Oc2ccc(cc2Cl)[C@H]1O` [vancomycin, reference compound], for which, in experiment [1] (1.1 μM, positive control), the Growth rate turned out to be 0.0 log replications/hr and the Percent attenuation turned out to be 100%.
For the molecule `O=C(O)c1ccc(O)cc1` [p-hydroxybenzoic acid, 4-hydroxybenzoic acid], in experiment [2], the IC50 was 8 mM and the CC50 was below 15 mM.
The like results for `O=C(O)c1cc(O)c(O)c(O)c1` [gallic acid] were, in that order, 17.3 mM and above 7.5 mM.
Consider `O=C(O)c1cc(O)ccc1O` [gentisic acid, 2,5-dihydroxybenzoic acid], for which the IC50 in experiment [2] was found to be 9.2 mM.
Consider `O=C(O)c1ccc(O)c(O)c1` [protocatechuic acid, 3,4-dihydroxybenzoic acid], for which, in experiment [2], the IC50 stood at 14.4 mM and the CC50 was below 15 mM.
With `O=C(O)c1ccccc1` [benzoic acid, reference compound], the “effect on biofilm formation” value in experiment [2] is given as “Neither benzoic acid nor 2-pentanone had a statistically significant effect on biofilm formation”.
With `CCCOC(=O)c1cc(O)c(O)c(O)c1` [propyl gallate], in experiment [2], the IC50 came out at 2.9 mM and the CC50 was below 15 mM.
Take `O=C(O)c1cccc(O)c1` [3-hydroxybenzoic acid]: in experiment [2], the IC50 was determined as 9.6 mM and the CC50 is below 15 mM.
For `CCOC(=O)c1ccc(OCC)cc1` [EEB, ethyl 4-ethoxybenzoate], the “antibacterial activity against log phase cells” value in experiment [3] is “did not show antibacterial activity”. Further, the “antibacterial activity against stationary phase cells” value in experiment [4] is “did not show antibacterial activity”. The CC50 in experiment [2] is above 7.5 mM. In addition, the “effect of DMSO on anti-biofilm activity” value in experiment [2] (combined with 1% DMSO) is “presence of DMSO increased the anti-biofilm activity of EEB”. For the same molecule, the “anti-biofilm activity (words)” value in experiment [2] is reported as “significant anti-biofilm activity”; in experiment [2] (listed as ethyl 4-ethoxybenzoate), “anti-biofilm activity”.
On to `COC(=O)c1cc(O)c(O)c(O)c1` [methyl gallate], for which the IC50 in experiment [2] came to 0.82 mM. For the same molecule, the CC50 in experiment [2] is below 7.5 mM. Also, the Percent attenuation in experiment [1] (1.1 mM) turned out to be 30%; in experiment [1] (1.2 mM), 46%. For the same molecule, the Growth rate in experiment [1] (1.1 mM, t=0 to t=4 h) amounted to 0.77 log replications/hr; in experiment [1] (1.2 mM, t=0 to t=4 h) it was 0.59 log replications/hr. Moreover, the “synergism with vancomycin in biofilm killing” value in experiment [5] is “did not exhibit synergism”. In addition, in experiment [6], the “hydrophobicity of S. aureus” value is on record as “decreased the hydrophobicity”.
For the molecule `CCOC(=O)c1cc(O)c(O)c(O)c1` [ethyl gallate], in experiment [2], the IC50 worked out at 6.7 mM and the CC50 was below 15 mM.
On to `CCCC(C)=O` [2-pentanone, reference compound], for which the “effect on biofilm formation” value in experiment [2] is given as “Neither benzoic acid nor 2-pentanone had a statistically significant effect on biofilm formation”.
With `COC(=O)c1ccc(O)cc1` [methyl paraben, 4-hydroxybenzoic acid methyl ester], the Percent attenuation in experiment [1] (5.2 mM) is 25%. For the same molecule, in experiment [1] (5.2 mM, t=0 to t=4 h), the Growth rate is listed as 0.83 log replications/hr.
Consider `CCOc1ccc(C(=O)O)cc1` [4-ethoxybenzoic acid], for which the IC50 in experiment [2] was found to be 1.6 mM. Further, the CC50 in experiment [2] is below 7.5 mM. The values for the Percent attenuation in experiment [1] (1.2 mM) and in experiment [1] (2.4 mM) were 12% and 47%, respectively. Also, the Growth rate is listed as 0.97 log replications/hr in experiment [1] (1.2 mM, t=0 to t=4 h) and 0.58 log replications/hr in experiment [1] (2.4 mM, t=0 to t=4 h). Further, in experiment [5], the “synergism with vancomycin in biofilm killing” value is listed as “synergistic effects”. In addition, the “hydrophobicity of S. aureus” value in experiment [6] is on record as “decreased the hydrophobicity”.
For the molecule `O=C(O)c1ccccc1O` [salicylic acid, 2-hydroxybenzoic acid], in experiment [2], the IC50 amounted to 38.5 mM and the CC50 was above 7.5 mM.
The like results for `O=C(O)c1cccc(O)c1O` [pyrocatechuic acid, 2,3-dihydroxybenzoic acid] were, in that order, 4.8 mM and below 15 mM.
